# Data from patent publication US11203565B2, “Ester compound and PIN1 inhibitor, inflammatory disease therapeutic, and colon cancer therapeutic in which said ester compound is used” (Hiroshima University, priority 2016, dated 2021).
# Columns and labels:
# [1] = tested on: Pin1 protein; test: Confirmation of Pin1 expression level in the intestinal tract of DSS mice (Example 7); format: in vivo; details: after 7 days of administration
# Method: The expression level of Pin1 in the intestinal tract was measured for each mouse subjected to the therapeutic experiment in Example 5.
# The present results also support that the compound synthesized in Example 2-7 (H-31) prevents development of ulcerative colitis.
# [2] = tested on: model animals of ulcerative colitis (DSS); test: Comparison between oral and intraperitoneal administration in DSS mice (Example 5); format: in vivo; details: 1 mg/kg/day
# Method: A compound whose therapeutic effect on ulcerative colitis could be confirmed in Example 4 (H-31) was studied on the difference in its effect depending on the administration method. […] In FIGS. 5(A) and (B), “normal” indicates a case where water was administered, and “DSS” indicates cases where DSS-containing water was administered. “non” indicates a case where no compound was administered, and “H-31” indicates a case where the compound synthesized in Example 2-7 was administered.
# [3] = tested on: colon cancer model mice; test: Therapeutic experiment for colon cancer in AOM/DSS colon cancer model mice (Example 9); format: in vivo; details: oral 1.25 mg/kg/day 3 times a week from Day 6, Day 89, vs control
# Method: On Day 1, azoxymethane (AOM) was intraperitoneally administered at 12 mg/kg to laboratory mice. Thereafter, from Day 6, a course of 5 days of oral administration of 3% dextran sulfate sodium (DSS) and a period of 16 days without administration of DSS was repeated 4 times to prepare colon cancer model mice having cancer caused by inflammation of the large intestine. A group in which a compound of the present invention (H-31) was administered and a group without administration of the compound of the present invention (control) were provided. In the group in which the compound of the present invention (H-31) was administered, oral administration was carried out 3 times a week at 1.25 mg/kg/day from Day 6.
# On Day 89, the colon cancer model mice were dissected, and the number of colon cancer developed and the tumor area per colon cancer (total tumor area/number of tumors) were measured.
# [4] = target: T1, Pin1 (Homo sapiens, UniProt Q13526); test: Evaluation of inhibitory activity on function of Pin1: cell assay using degree of AMPK phosphorylation as index; format: cell-based; design: key to Pin1 inhibitory activity: −: Promotion of AMPK phosphorylation was not (or hardly) found.; +: Phosphorylation of AMPK was promoted, but the promotion was weaker than that by C1.; ++: Phosphorylation of AMPK was promoted to the same degree as in the case of C1.; +++: Phosphorylation of AMPK was promoted more strongly than in the case of C1; details: 293T cells
# T1 construct: endogenous in cells; host or cells: 293T cells
# Method: In order to evaluate the inhibitory activities of the compounds of the present invention synthesized in Example 2 on the function of Pin1, an assay using cells was carried out according to a method previously developed by the present inventors (Yusuke Nakatsu et al., Journal of Biological Chemistry, 2015, Vol. 290, No. 40, pp. 24255-24266), using as an index the degree of phosphorylation of AMPK (AMP-activated protein kinase), whose phosphorylation is known to be suppressed by Pin1.
# Briefly, 293T cells were plated on a 24-well plate coated with collagen. Forty-eight hours later, each compound (100 μM) synthesized in the Example was added to the plate, and the plate was left to stand in an incubator for 30 minutes. Thereafter, 10 mM 2-DG was added to the plate, and, 1 hour later, each sample was collected using a buffer containing mercaptoethanol and SDS.
# According to conventional methods, SDS-PAGE and blotting were carried out, and then blocking was carried out with 3% BSA for 1 hour. Thereafter, reaction was carried out at normal temperature for 1 hour with each of a pAMPK antibody (Cell signaling 1:2000, Can get signal solution 1: diluted by Toyobo) as a primary antibody, and an HRP-linked anti rabbit IgG (GE healthcare 1:4000, Can get signal solution 2: diluted by Toyobo) as a secondary antibody, to perform detection.
# As a compound to be compared, C1: (R)-2-(5-(4-methoxyphenyl)-2-methylfuran-3-carboxamido)-3-(naphthalene-6-yl)propanoic acid, which is an already reported Pin1 inhibitor, was used.
# In FIG. 3, “-” indicates the degree of phosphorylation of AMPK in a case where no Pin1 inhibitor was added, and “C1”, “H-30”, “H-31”, “H-32”, and “H-33” indicate the degrees of phosphorylation of AMPK in cases where the respective Pin1 inhibitors were added. […] The inhibitory activity on the function of Pin1 was rated as follows based on comparison with the degree of inhibition by C1.
# [5] = tested on: NASH model mice; test: Therapeutic experiment for NASH in MCDD-fed NASH model mice (Example 8); format: in vivo, mice (C57BL/6J); details: NASH mice fed MCDD 8 weeks, intraperitoneal 2.5 mg/kg/day 3 times a week
# Method: In order to test the therapeutic effect of a compound of the present invention on non-alcoholic steatohepatitis (NASH), an animal experiment using NASH model mice was carried out.
# The NASH model mice (hereinafter referred to as “NASH mice”) were prepared by feeding male individuals of laboratory mice (C57BL/6J) with methionine-choline-deficient diet (MCDD) for 8 weeks to allow accumulation of fat in the liver. The animal experiment was carried out for a group in which a compound of the present invention (H-31) was intraperitoneally administered 3 times a week at 2.5 mg/kg/day during the 8 weeks of the MCDD feeding period, and a group in which no administration was carried out. In addition, in order to provide control mice, male individuals of laboratory mice (C57BL/6J) were fed with normal diet for 8 weeks.
# The results of measurement of the blood AST (GOT) level and the blood ALT (GPT) level in these mice are shown in FIGS. 8(A) and (B), respectively.
# [6] = tested on: model animals of ulcerative colitis (3% DSS); test: Therapeutic experiment using model animals of ulcerative colitis (Example 4); format: in vivo, C57BL6 mice; details: DSS mice, compound 1 mg/kg/day
# Method: To C57BL6 mice of 8 weeks old, 3% DSS (dextran sulfate sodium)-containing water or water (control) was administered by allowing the mice to drink it for 7 days. For the mice to which DSS was administered, groups in which 5-ASA (compound name: 5-aminosalicylic acid; generic name: Mesalazine), which is a therapeutic agent for inflammatory bowel diseases, the compound synthesized in Example 2-7 (H-31), or the compound synthesized in Example 2-36 (H-179) was administered, and a group in which no compound was administered were provided. On Day 7 after the beginning of the administration, the body weight of each mouse was measured, and the large intestine was removed from the mouse, followed by carrying out histological study. […] In FIGS. 4(A) and (B), “normal” indicates a case where water was administered, and “DSS” indicates cases where DSS-containing water was administered. “non” indicates a case where no compound was administered, and “5-ASA”, “H-31”, and “H-179” indicate cases where the respective compounds were administered. The dose was as follows: 5-ASA, 300 mg/kg/day; H-31, 1 mg/kg/day; H-179, 1 mg/kg/day. As shown in FIG. 4(A), weight loss due to inflammation of the intestine was found in the cases where DSS was administered.
# [7] = tested on: model animals of ulcerative colitis (3% DSS); test: Therapeutic experiment using model animals of ulcerative colitis 2 (Example 6); format: in vivo, C57BL6 mice; details: DSS mice, 1 mg/kg/day
# Method: To C57BL6 mice of 8 weeks old, 3% DSS (dextran sulfate sodium)-containing water or water (control) was administered by allowing the mice to drink it for 7 days. […] On Day 7 after the beginning of the administration, the body weight of each mouse was measured, and the large intestine was removed from the mouse, followed by carrying out histological study. […] In addition, an experiment for measuring the colon length was carried out.
# T1 sequence (Q13526 whole entry): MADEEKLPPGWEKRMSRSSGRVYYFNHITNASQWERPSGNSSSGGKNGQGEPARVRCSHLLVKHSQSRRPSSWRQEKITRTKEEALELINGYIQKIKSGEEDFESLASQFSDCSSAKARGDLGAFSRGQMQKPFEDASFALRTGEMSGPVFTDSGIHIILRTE
smiles,measurement,setting,value
O=C(O[C@H](Cc1ccc2ccccc2c1)C(=O)O)C1c2ccccc2-c2ccccc21 [Compound H-31],increase in the Pin1 protein level in the intestinal tract,[1],could be significantly ameliorated
same,body weight change,[2]; intraperitoneal administration,no significant difference was found
same,body weight change,[2]; oral administration,a significant decrease in the body weight change
same,number of colon cancer developed,[3],no significant difference in the number of colon cancer
same,tumor area per colon cancer (total tumor area/number of tumors),[3],reduction of the tumor area could be found
same,Pin1 inhibitory activity,"[4]; compound 100 μM, 10 mM 2-DG, pAMPK immunoblot rated by comparison with C1",+++
same,inhibitory activity on Pin1 (stated in words),"[4]; cell-based experiment, 100 μM",both have inhibitory activities on Pin1
same,blood ALT (GPT) level,[5],the ALT value decreased
same,blood AST (GOT) level,[5],the AST value decreased
same,fibrosis of liver tissue (Azan staining),[5],fibrosis of liver tissue was remarkably suppressed
same,tissue damage in the large intestine (stained section),[6]; Day 7,tissue damage in the large intestine was hardly found
same,weight loss (body weight as ratio to body weight before administration),"[6]; Day 7, vs no compound",the weight loss was significantly smaller
same,tissue damage in the large intestine (stained section),[7],tissue damage in the large intestine was hardly found
same,change in the colon length,[7]; vs no compound,the change in the colon length was significantly smaller
same,weight loss,[7]; vs no compound,the weight loss was significantly smaller
